Molecular target: T1, HPK1 (Homo sapiens, UniProt Q92918)
T1 construct: A HiBiT tag was introduced by CRISPR on the N terminus of HPK1 in Jurkat cells; host or cells: Jurkat cells (ATCC TIB-152), monoclonal line with CRISPR knock-in of HiBiT at the endogenous HPK1 locus
Assay: HPK1 Cellular HiBit Degradation Assay
Assay type: cell-based
Conditions: HiBiT HPK1 Jurkat cells, 24 hrs; for DC50: concentration at which 50% of HPK1 was remaining, read-out: DC50 Category; for Dmax: Jurkat, read-out: Dmax Category
Method in brief: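 Jurkat cells with CRISPR knock-in N-terminal HiBiT-HPK1 were treated with CTMs (11-point, 3.16-fold, 10 uM to 0.1 nM final) for 24 hrs at 37° C. HiBiT lytic luminescence, with parental Jurkat as background and DMSO as 100%, gave % HPK1 remaining; four-parameter fit yielded DC50 and Dmax (100 minus lowest % remaining).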

[1] = maximum degradation vs DMSO vehicle control

T1 sequence (Q92918 whole entry): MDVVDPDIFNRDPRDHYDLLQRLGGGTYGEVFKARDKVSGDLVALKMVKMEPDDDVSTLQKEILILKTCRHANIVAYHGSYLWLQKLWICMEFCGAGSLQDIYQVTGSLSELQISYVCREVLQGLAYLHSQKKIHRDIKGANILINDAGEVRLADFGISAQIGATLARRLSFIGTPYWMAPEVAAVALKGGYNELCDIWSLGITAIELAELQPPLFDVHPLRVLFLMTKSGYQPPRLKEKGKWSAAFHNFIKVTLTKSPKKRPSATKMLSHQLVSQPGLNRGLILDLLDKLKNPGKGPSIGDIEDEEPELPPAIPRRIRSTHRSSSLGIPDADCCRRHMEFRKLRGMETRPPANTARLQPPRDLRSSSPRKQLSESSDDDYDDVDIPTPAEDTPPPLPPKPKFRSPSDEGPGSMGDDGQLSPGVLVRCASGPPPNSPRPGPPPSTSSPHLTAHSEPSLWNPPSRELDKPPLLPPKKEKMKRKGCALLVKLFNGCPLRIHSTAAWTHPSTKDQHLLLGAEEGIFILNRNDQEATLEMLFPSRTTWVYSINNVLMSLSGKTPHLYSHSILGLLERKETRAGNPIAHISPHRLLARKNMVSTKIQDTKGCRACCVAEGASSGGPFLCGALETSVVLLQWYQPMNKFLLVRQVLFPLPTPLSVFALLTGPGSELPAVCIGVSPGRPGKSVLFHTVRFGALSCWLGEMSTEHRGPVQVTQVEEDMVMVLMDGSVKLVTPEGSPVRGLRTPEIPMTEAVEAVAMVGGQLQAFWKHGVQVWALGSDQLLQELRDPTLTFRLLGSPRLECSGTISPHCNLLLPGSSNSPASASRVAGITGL

Row | Dmax [1] [%] | SMILES | DC50 [nM] | Dmax Category [1]
1 | 50 to 70 | Cc1cc(F)c(Nc2nc(-c3ccc4c(c3)N([C@H]3C[C@@H](N5CCCCC5)C3)C(=O)C43CCN(C(=O)CC4CCN(C(=O)C5CCN(C(=O)CNc6cccc7c6C(=O)N(C6CCC(=O)NC6=O)C7=O)CC5)CC4)CC3)cc3ncn(C(C)C)c23)cc1C(=O)NC(C)C (mixture of isomers) [Example 99, 5-[(6-{1′-[2-(1-{1-[2-({2-[(3RS)-2,6-dioxopiperidin-3-yl]-1,3-dioxo-2,3-dihydro-1H-isoindol-4-yl}amino)acetyl]piperidine-4-carbonyl}piperidin-4-yl)acetyl]-2-oxo-1-[(1S,3S)-3-(piperidin-1-yl)cyclobutyl]-1,2-dihydrospiro[indole-3,4′-piperidin]-6-yl}-3-(propan-2-yl)-3H-imidazo[4,5-c]pyridin-4-yl)amino]-4-fluoro-2-methyl-N-(propan-2-yl)benzamide] | 500 to 1000 | 
2 | > 85 | CC(C)n1cnc2cc(-c3ccc4c(c3)N([C@H]3C[C@@H](N5CCCCC5)C3)C(=O)C43CCN(C(=O)C4CC5(C4)CN(C(=O)C4CCN(c6ccc(C7CCC(=O)NC7=O)cn6)CC4)C5)CC3)nc(NC3CC3)c21 (stereo partly drawn) [Example 182, 3-(6-{4-[6-({6-[4-(cyclopropylamino)-3-(propan-2-yl)-3H-imidazo[4,5-c]pyridin-6-yl]-2-oxo-1-[(1S,3S)-3-(piperidin-1-yl)cyclobutyl]-1,2-dihydrospiro[indole-3,4′-piperidine]-1′-yl}carbonyl)-2-azaspiro[3.3]heptane-2-carbonyl]piperidin-1-yl}pyridin-3-yl)piperidine-2,6-dione] | < 100 | 
3 |  | CC(C)n1cnc2cc(-c3ccc4c(c3)N(C3CC(N5CCCCC5)C3)C(=O)C43CCN(C(=O)[C@@H]4CCN(C(=O)C5CCN(c6ccc(C7CCC(=O)NC7=O)cn6)CC5)C4)CC3)nc(Nc3ccncc3F)c21 (mixture of isomers) [Example 25, (3RS)-3-(6-{4-[(3R)-3-[(6-{4-[(3-fluoropyridin-4-yl)amino]-3-(propan-2-yl)-3H-imidazo[4,5-c]pyridin-6-yl}-2-oxo-1-[(1S,3S)-3-(piperidin-1-yl)cyclobutyl]-1,2-dihydrospiro[indole-3,4′-piperidin]-1′-yl)carbonyl]pyrrolidine-1-carbonyl]piperidin-1-yl}pyridin-3-yl)piperidine-2,6-dione] | < 100 | B (B: >70%-<85%)
4 | 70 to 85 | CC(C)n1cnc2cc(-c3ccc4c(c3)N([C@H]3C[C@@H](N5CCCCC5)C3)C(=O)C43CCN(C(=O)C4(C)CCN(C(=O)[C@H]5CC[C@H](Oc6ccc(C7CCC(=O)NC7=O)cn6)CC5)CC4)CC3)nc(NC3CC3)c21 (mixture of isomers) [Example 104, (3RS)-3-(6-{[(1R,4R)-4-[4-({6-[4-(cyclopropylamino)-3-(propan-2-yl)-3H-imidazo[4,5-c]pyridin-6-yl]-2-oxo-1-[(1S,3S)-3-(piperidin-1-yl)cyclobutyl]-1,2-dihydrospiro[indole-3,4′-piperidin]-1′-yl}carbonyl)-4-methylpiperidine-1-carbonyl]cyclohexyl]oxy}pyridin-3-yl)piperidine-2,6-dione] | < 100 | 

Row | SMILES | Dmax [1] [%] | DC50 [nM] | Dmax Category [1]
5 | CC(C)n1cnc2cc(-c3ccc4c(c3)N([C@H]3C[C@@H](N5CCCCC5)C3)C(=O)C43CCN(C(=O)C45CN(C(=O)C6CCN(c7ccc(C8CCC(=O)NC8=O)cn7)CC6)CC(F)(C4)C5)CC3)nc(NC3CC3)c21 (mixture of isomers) [Example 279, (3RS)-3-(6-{4-[1-({6-[4-(cyclopropylamino)-3-(propan-2-yl)-3H-imidazo[4,5-c]pyridin-6-yl]-2-oxo-1-[(1S,3S)-3-(piperidin-1-yl)cyclobutyl]-1,2-dihydrospiro[indole-3,4′-piperidin]-1′-yl}carbonyl)-5-fluoro-3-azabicyclo[3.1.1]heptane-3-carbonyl]piperidin-1-yl}pyridin-3-yl)piperidine-2,6-dione] | 70 to 85 | < 100 | 
6 | CC(C)n1cnc2cc(-c3ccc4c(c3)N([C@H]3C[C@@H](N5CCCCC5)C3)C(=O)C43CCN(C(=O)[C@@H]4C[C@H]5CC[C@@H](C4)N5C(=O)C4CCN(c5ccc(C6CCC(=O)NC6=O)cn5)CC4)CC3)nc(NC3CC3)c21 (mixture of isomers) [Example 286, (3SR)-3-(6-{4-[(1S,3R,5RS)-3-({6-[4-(cyclopropylamino)-3-(propan-2-yl)-3H-imidazo[4,5-c]pyridin-6-yl]-2-oxo-1-[(1S,3S)-3-(piperidin-1-yl)cyclobutyl]-1,2-dihydrospiro[indole-3,4′-piperidin]-1′-yl}carbonyl)-8-azabicyclo[3.2.1]octane-8-carbonyl]piperidin-1-yl}pyridin-3-yl)piperidine-2,6-dione] | 70 to 85 | < 100 | 

From patent publication US12091426B2, “Bifunctional degraders of hematopoietic progenitor kinase and therapeutic uses thereof” (Nurix Therapeutics, Inc., priority 2021, dated 2024)
